Reference: US20220062299A1, “USE OF GLUCOCORTICOID STEROIDS IN PREVENTING AND TREATING CONDITIONS OF MUSCLE WASTING, AGING AND METABOLIC DISORDER” (NORTHWESTERN UNIVERSITY, priority 2018, published 2022)

Test system: mdx muscles
Assay: Muscle metabolomics of mdx quadriceps
Format: in vivo, mouse
Settings: 4 wk exposure
Protocol: Muscle metabolomics. Total hydrophilic metabolite content was extracted from quadriceps muscle tissue at treatment endpoint through methanol-water (80:20) extraction, adapting conditions described previously (Bruno et al., 2018). Briefly, total metabolite content from quadriceps muscle was obtained from approximately 100 mg (wet weight) quadriceps muscle tissue per animal. Frozen (−80° C.) muscle was pulverized in liquid nitrogen and homogenized with approximately 250 μl 2.3 mm zirconia/silica beads (Cat #11079125z, BioSpec, Bartlesville, Okla.) in 1 ml methanol/water 80:20 (vol/vol) by means of Mini-BeadBeater-16 (Cat #607, Biospec, Bartlesville, Okla.) for 1 minute. After centrifuging at 5000 rpm for 5 minutes, 200 μl of supernatant were transferred into a tube pre-added with 800 μL of ice-cold methanol/water 80% (vol/vol). Samples were vortexed for 1 minute, and then centrifuged at approximately 20,160×g for 15 minutes at 4° C. Metabolite-containing extraction solution was then dried using SpeedVac (medium power). 200 ul of 50% Acetonitrile were added to the tube for reconstitution following by overtaxing for 1 minute. Samples solution were then centrifuged for 15 minutes at 20,000 g, 4° C. Supernatant was collected for LC-MS analysis for Hydrophilic Metabolites Profiling as follows. Samples were analyzed by High-Performance Liquid Chromatography and High-Resolution Mass Spectrometry and Tandem Mass Spectrometry (HPLC-MS/MS). Specifically, system consisted of a Thermo Q-Exactive in line with an electrospray source and an Ultimate3000 (Thermo) series HPLC consisting of a binary pump, degasser, and auto-sampler outfitted with a Xbridge Amide column (Waters; dimensions of 4.6 mm×100 mm and a 3.5 μm particle size). The mobile phase A contained 95% (vol/vol) water, 5% (vol/vol) acetonitrile, 20 mM ammonium hydroxide, 20 mM ammonium acetate, pH=9.0; B was 100% Acetonitrile. […] The capillary of the ESI source was set to 275° C., with sheath gas at 45 arbitrary units, auxiliary gas at 5 arbitrary units and the spray voltage at 4.0 kV. In positive/negative polarity switching mode, an m/z scan range from 70 to 850 was chosen and MS1 data was collected at a resolution of 70,000. The automatic gain control (AGC) target was set at 1×10^6 and the maximum injection time was 200 ms. The top 5 precursor ions were subsequently fragmented, in a data-dependent manner, using the higher energy collisional dissociation (HCD) cell set to 30% normalized collision energy in MS2 at a resolution power of 17,500. The sample volumes of 25 μl were injected. Data acquisition and analysis were carried out by Xcalibur 4.0 software and Tracefinder 2.1 software, respectively (both from Thermo Fisher Scientific). Metabolite levels were analyzed as peak area normalized to wet tissue weight and total […] content. Gene-metabolite pathway enrichment was conducted using the MetaboAnalyst platform (v4.0; Joint Pathway Analysis mode) (Chong et al., 2018). Pulsatile glucocorticoid exposure enhanced mitochondrial respiration in dystrophic muscle through BCAA. […] This correlated with increased catabolism of BCAAs, seen as reduced levels of precursors and intermediates and increased levels of oxoglutarate and succinate in the TCA cycle (FIG. 1B, center). […] Opposing shifts were confirmed by HPLC analyses of muscle ATP and NAD^+and by resting blood lactate (FIGS. 5A and 5B), and these changes correlated with parallel shifts in muscle glycogen content (FIG. 5C).

C[C@]12C=CC(=O)C=C1CC[C@@H]1[C@@H]2C(=O)C[C@@]2(C)[C@H]1CC[C@]2(O)C(=O)CO [prednisone, Prednisone]
BCAA and glucose catabolism (daily prednisone): substantial impairment
NAD+ and NADH in muscle (daily prednisone): loss
Glycolysis (levels of pyruvate and lactate) (weekly prednisone): increased
catabolism of BCAAs (weekly prednisone): increased
ATP, phosphocreatine, and NAD+ in muscle (weekly prednisone, vs vehicle): increased
